{"source": "patent US11072616B2", "about": "“Cyclic peptides targeting alpha-4-beta-7 integrin” (Zealand Pharma A/S, priority 2015, dated 2021)", "key": {"[1]": {"settings": "mouse, in vivo", "experimental": "(§1) Oral bioavailability of test compounds was conducted by assessing plasma exposure of following one or two oral doses in mice and, in some cases, comparing said plasma exposure with that following a single intravenous dose of the same compound.\n(§2) Body weights were recorded on the day of dosing.\n(§3) Dosing: The formulation containing the test compound were administered p.o. by gavage with disposable feeding needles.\n(§4) Sample processing/storage: All blood samples were transferred into K2EDTA tubes on wet ice and centrifuged within 5 min (3200×g for 5 min at 4° C.) to obtain plasma. Samples were stored frozen at −80° C. until bioanalysis.\n(§5) Instrumentation: AB Sciex API 4000 Q-TRAP MS/MS system equipped with an Agilent LC system with a binary pump, a solvent degasser, a thermostatted column compartment, a CTC autosampler and a divert valve installed between the column and mass spectrometer inlet."}, "[2]": {"system": "CD3+CD4+α4β7+ T lymphocytes", "experiment": "FACS analysis of T lymphocyte populations, 8-day DSS study", "type": "in vivo, C57Bl/6 mice", "source_text": "Collection of samples. On Day 8, five hours after ET02451-01, ET02452-01 and vehicle dosing, the animals were euthanized by cardiac puncture under general anesthesia, according to the “Guide to the Care and Use of Experimental Animals” published by the CCAC. Blood was transferred in a Sarstedt tube containing EDTA. Mesenteric and peripheral (inguinal, auxiliary and brachial) lymph nodes were collected and transferred on ice in corresponding tubes containing cold PBS. Nodes were kept on ice until tissue preparation.\nCell population labeling. Blood was withdrawn by cardiac puncture and collected on EDTA-coated tubes. Mensenteric lymph nodes (MLN) and peripheral lymph nodes (PLN) were also collected. Mononuclear cells from the tissues will be isolated using density gradient (Lympholyte) and they were stained with fluorescent antibodies. […] After washes, cells were fixed using BD Fix Solution. Percentage of different subpopulations of T lymphocytes were then analysed using FACSCalibur cytometer. Antibodies employed were the same as listed for the single-dose PD studies above."}, "[3]": {"experiment": "In vivo pharmacokinetic assessment, liver", "set-up": "species or system CD-1 mice", "source_text": "In Vivo Pharmacokinetic Assessments in Rodents\nThe livers will be blotted and weighed."}, "DSS-treated mice": {"system": "DSS-treated mice", "experiment": "8-day efficacy study in DSS model (therapeutic) of ulcerative colitis", "type": "in vivo, C57Bl/6 mice", "settings": "for reduction of DAI score: Day 8 vs DSS+vehicle; for reduction of lesion length: vs control vehicle treated-group", "protocol": "Animals. Female C57Bl/6 mice (Charles River, St-Constant, Qc), weighting 16-19 g at delivery were used for this study. Following arrival in the animal facility, all animals were subjected to a general health evaluation. An acclimation period of 7-14 days was allowed before the beginning of the study.\nOral dosing of the test article and the vehicle. From Day 5 to Day 8, nacellins and the vehicle were administered as a single slow bolus (over approximately 5 seconds) via oral route (p.o.), according to the procedure of administration of solution by gavage: the animal was firmly restrained. A bulb-tipped gastric gavage needle of 22G was passed through the side of the mouth and was advanced towards the oesophagus. The test articles and the vehicle were dosed orally at 5 mL/kg.\nIntraperitoneal dosing of the test articles and the vehicle. On day 5, DATK32 antibody was administered in only on Day 5, as a single slow bolus (over approximately 5 seconds) via the i.p. route. […] Intraperitoneal administration was performed accordingly to the following procedure: the mouse was restrained manually and held with the head and body tilted downward. The tip of the needle (27 G) was inserted through the skin and just past the abdominal wall. A short pull back of the plunger of the syringe was done prior to administration of the solution to make sure that the syringe was not inserted in any abdominal organ (fluid would be pulled back into the syringe in this case).\nInflammation Score. Once the mouse was euthanized, the colon was collected and its length was measured. Lesion length was also measured. Colon inflammation was scored based on severity of oedema and ulceration.\nDisease Activity Index (DAI) assessment. Body weight and DAI were measured on Day 5 in order to distribute DSS-treated animals in two uniform groups prior dosing. Specific symptoms associated to UC were scored based on the severity of each particular symptoms: 1—blood in stool (negative hemoccult, positive hemoccult, blood traces in stool visible, rectal bleeding); 2—stool consistency (normal, soft but still formed, very soft, diarrhea); 3—posture and fur (normal; ruffled fur; ruffled fur combined to slight hunched posture and slight dehydration; ruffled fur combined to hunched posture, dehydration and altered walking; moribund (euthanasia is mandatory before the animal reach this point). The overall DAI score was the sum of the three parameters (maximum score 9). Body weight measurement and DAI assessment were performed also on Day 8 to evaluate the effect of the treatments."}, "[4]": {"experiment": "In vivo pharmacokinetic assessment, plasma", "settings": "naïve mice", "experimental": "as §1, §2, §3, §4, §5"}, "[5]": {"experiment": "In vivo pharmacokinetic assessment, colon", "set-up": "species or system CD-1 mice", "settings": "for tmax: colon, naïve mice"}}, "note": "Where two headings read alike, the source gives them in different places."}
{"smiles": "CC(C)C[C@@H]1NC(=O)c2ccc(-c3ccc(N4CCNCC4)cc3)c(c2)CNC(=O)[C@@H]2CCCN2[C@H](C(=O)NC(C)(C)C)[C@H](C)NC(=O)[C@H]([C@@H](C)O)NC(=O)[C@H](CC(=O)O)NC1=O", "note": "[ET02451]", "values": [{"measurement": "F", "setting": "[1]; iv, 5 mg/kg", "result": 100, "unit": "%"}, {"measurement": "elimination half-life in plasma", "setting": "[1]; po", "result": "~0.5", "unit": "h"}, {"measurement": "oral bioavailability / absorption (in words)", "setting": "[1]; po", "result": "significant absorption from the gut and systemic exposure following oral dosing"}, {"measurement": "AUC0-tiast", "setting": "[1]; po, 40 mg/kg", "result": 686, "unit": "ng·h/mL"}, {"measurement": "F", "setting": "[1]; po, 40 mg/kg", "result": 11.0, "unit": "%"}, {"measurement": "CD3+CD4+α4β7+ cell population in mesenteric lymph nodes", "setting": "[2]; p.o. 40 mg/kg", "result": "significant decrease"}, {"measurement": "tmax", "setting": "[3]; liver, single i.v. 5 mg/kg, naïve mice", "result": 0.0833, "unit": "h"}, {"measurement": "bioavailability in the liver", "setting": "[3]; mouse, in vivo", "result": "~8", "unit": "%"}, {"measurement": "main route of elimination", "setting": "[3]; mouse, in vivo", "result": "hepatobiliary clearance"}, {"measurement": "AUC0-inf", "setting": "[3]; mouse, in vivo, iv, 5 mg/kg", "result": 8460, "unit": "ng·h/mL"}, {"measurement": "AUC0-tlast", "setting": "[3]; mouse, in vivo, iv, 5 mg/kg", "result": 8289, "unit": "ng·h/mL"}, {"measurement": "MRT0-inf", "setting": "[3]; mouse, in vivo, iv, 5 mg/kg", "result": 2.00, "unit": "h"}, {"measurement": "half-life in liver", "setting": "[3]; mouse, in vivo, po", "result": "~8", "unit": "h"}, {"measurement": "AUC0-inf", "setting": "[3]; mouse, in vivo, po, 40 mg/kg", "result": 6054, "unit": "ng·h/mL"}, {"measurement": "AUC0-tlast", "setting": "[3]; mouse, in vivo, po, 40 mg/kg", "result": 6024, "unit": "ng·h/mL"}, {"measurement": "MRT0-inf", "setting": "[3]; mouse, in vivo, po, 40 mg/kg", "result": 2.11, "unit": "h"}, {"measurement": "tmax", "setting": "[3]; mouse, in vivo, po, 40 mg/kg", "result": 2.00, "unit": "h"}, {"measurement": "reduction of DAI score", "setting": "DSS-treated mice; oral 40 mg/kg, Day 5 to Day 8", "result": 15, "unit": "%"}, {"measurement": "lesion/colon length", "setting": "DSS-treated mice; oral 40 mg/kg, vehicle group 40%", "result": 12, "unit": "%"}, {"measurement": "reduction of lesion length", "setting": "DSS-treated mice; oral 40 mg/kg", "result": "significantly reduced the lesion length"}, {"measurement": "AUC0-tiast", "setting": "[4]; single i.v. 5 mg/kg", "result": 778, "unit": "ng·h/mL"}, {"measurement": "tmax", "setting": "[4]; single i.v. 5 mg/kg", "result": 4.98, "unit": "min"}, {"measurement": "Cmax", "setting": "[4]; single p.o. 40 mg/kg", "result": 4638, "unit": "ng/mL"}, {"measurement": "tmax", "setting": "[5]; single i.v. 5 mg/kg", "result": 2.00, "unit": "h"}, {"measurement": "tmax", "setting": "[5]; single p.o. 40 mg/kg", "result": 2.00, "unit": "h"}, {"measurement": "oral bioavailability in colon", "setting": "[5]; mouse, in vivo", "result": "~100", "unit": "%"}, {"measurement": "AUC0-inf", "setting": "[5]; mouse, in vivo, iv, 5 mg/kg", "result": 17140, "unit": "ng·h/mL"}, {"measurement": "AUC0-tlast", "setting": "[5]; mouse, in vivo, iv, 5 mg/kg", "result": 17109, "unit": "ng·h/mL"}, {"measurement": "MRT0-inf", "setting": "[5]; mouse, in vivo, iv, 5 mg/kg", "result": 3.43, "unit": "h"}, {"measurement": "half-life in colon", "setting": "[5]; mouse, in vivo, po", "result": "greater than 21 hours"}, {"measurement": "AUC0-inf", "setting": "[5]; mouse, in vivo, po, 40 mg/kg", "result": 145327, "unit": "ng·h/mL"}, {"measurement": "AUC0-tlast", "setting": "[5]; mouse, in vivo, po, 40 mg/kg", "result": 130746, "unit": "ng·h/mL"}, {"measurement": "MRT0-inf", "setting": "[5]; mouse, in vivo, po, 40 mg/kg", "result": 4.59, "unit": "h"}]}
{"smiles": "CC(C)C[C@@H]1NC(=O)c2ccc(-c3ccnc4ccccc34)c(c2)CNC(=O)[C@@H]2CCCN2[C@H](C(=O)NC(C)(C)C)[C@H](C)NC(=O)[C@H]([C@@H](C)O)NC(=O)[C@H](CC(=O)O)NC1=O", "note": "[ET02452]", "values": [{"measurement": "oral bioavailability / absorption (in words)", "setting": "[1]; po", "result": "low oral bioavailability"}, {"measurement": "CD3+CD4+α4β7+ cell population in mesenteric lymph nodes", "setting": "[2]; i.p.: ET02452 65 mg/kg, DATK32 15 mg/kg", "result": "significant decrease"}, {"measurement": "reduction of DAI score", "setting": "DSS-treated mice; i.p.: ET02452-01 65 mg/kg Day 5-8, DATK32 15 mg/kg Day 5", "result": 46, "unit": "%"}, {"measurement": "reduction of lesion length", "setting": "DSS-treated mice; i.p.: ET02452-01 65 mg/kg, DATK32 15 mg/kg Day 5", "result": 20, "unit": "%"}, {"measurement": "reduction of DAI score", "setting": "DSS-treated mice; oral 40 mg/kg, Day 5 to Day 8", "result": "did not have any beneficial effect"}, {"measurement": "reduction of lesion length", "setting": "DSS-treated mice; oral 40 mg/kg", "result": 53, "unit": "%"}]}
